Laboratory results from patent US11344534B2, “Cholinergic agonism for the treatment of pancreatic cancer” (priority 2017, dated 2022).
“Also recorded” adds a separate entry of the source.

Key:
KPC mice = KPC mice with established PDAC treated with gemcitabine with or without bethanechol; assay type: in vivo, mouse; conditions: for overall survival (in words): KPC mice with established PDAC, bethanechol + GEM vs GEM alone
Excerpt: Next, the role of cholinergic signaling in advanced pancreatic cancer was investigated using the genetically engineered KPC (K-Ras^+/LSL-G12D;p53^+/R172H;Pdx-1-Cre) mouse model, which develops ductal adenocarcinoma by 17-19 weeks (Olive et al., 2009, Hingorani et al., 2005).
K-Ras^+/LSL-G12D, p53^+/R172H, and Pdx-1-Cre mice were provided by Dr. Kenneth Olive (Columbia University). M1RKO mice were purchased from the Jackson Laboratory. KC mice and KPC mice were crossed with M1RKO mice. For several experiments, KC mice received pyloroplasty with or without vagotomy at 8 weeks and KC+VxPP mice were treated with or without bethanechol (400 μg/ml) after surgery immediately. They were sacrificed at 20 weeks. In addition, KPC mice were treated with gemcitabine biweekly and with or without bethanechol when the tumor size of 3-5 mm detected using ultrasound. They were sacrificed when the mice were moribund. For liver metastatic experiments, WT type C57/B6 mice received spleen injection and hemi-splenectomy. […] They were sacrificed when the mice were moribund.
Next, the role of cholinergic signaling in established PDAC was investigated using the KPC mouse model, which develops PDAC at a median age of 17-19 weeks^2, 29. KPC mice with pancreatic tumors that measured 3-5 mm in diameter on ultrasound were randomized to treatment with gemcitabine (GEM) alone, or GEM+bethanechol (FIG. 8I).
(§1) LSL-Kras^+/LSL-G12D, LSL-Trp53^+/R172H, and Pdx1-Cre mice were bred by Dr. Kenneth P. Olive and co-workers. Chrm1KO mice (C57BL/6-Chrm1tm1 Stl/J, (M1RKO) mice^1 were purchased from the Jackson Laboratory. KC mice and KPC mice were crossed with M1RKO mice. In the vagotomy experiments, KC mice received pyloroplasty with or without vagotomy at 8 weeks, and some KC+VxPP mice were treated with bethanechol ([…] in drinking water) immediately after surgery and then sacrificed at 20 weeks. KPC mice in treatment studies were palpated weekly for tumors in the pancreas. Once a tumor was suspected, KPC mice were screened by VEVO 2100—Ultrasound Imaging System (FUJIFILM VisualSonics) for pancreatic cancer. KPC mice were treated with gemcitabine, given by i.p. injection 100 mg/kg biweekly, with or without bethanechol, when a tumor size of 3-5 mm was detected using ultrasound. Mice were sacrificed when the mice were moribund. NOD/SCID mice were implanted with Panc1 cells subcutaneously and sacrificed at 30 days after implantation. For liver metastatic experiments, WT type C57/B6 mice received a splenic injection of labeled Panc02 cells, followed by hemi-splenectomy. The mice were then divided into three groups. […] Mice were then sacrificed when moribund. At necropsy, hepatic metastases that could clearly be identified as tumor nodules on gross inspection were separated. All animal studies and procedures were approved by the IACUC committee at Columbia University. All mice were bred under specific pathogen free conditions. Comparisons were made with age- and sex-matched control animals.
CD44, p-EGFR, p-PI3K, p-ERK, and Ki67 positive cells were quantified in at least five high power fields from at least 3 mice per group. Total cells per field were counted via morphometric analysis using ImageJ and the ratio of positive cells to total cell number calculated.

[1] = tested on: Kras^+/LSL-G12D mutant spheres; experiment: 3D Matrigel sphere culture of Kras mutant (Ad-Cre) pancreatic acinar cells; assay type: cell-based, mouse
Description: Cholinergic stimulation could in theory promote cancer indirectly through effects on stromal cells, or directly through effects on pancreatic epithelial cells. To determine whether cholinergic stimulation promoted tumor development in part through muscarinic receptors on cancer cells, the sphere forming capacity of K-Ras^+/LSL-G12D mutant pancreatic acinar cells was assessed in a 3D Matrigel culture system, with or without muscarinic stimulation. K-Ras^+/LSL-G12D mutant spheres were generated from K-Ras^+/LSL-G12D pancreatic acinar cells by treatment with adenoviral delivered Cre (Ad-Cre).
3D cultures were performed as described previously (Wescott et al., 2009). Organoids were cultured for 5 days before analysis. Adenoviral delivered Cre (Ad-Cre) was added to the cultures and medium was changed after 12 hours. […] Sphere size and […] were analyzed using ImageJ software.
To determine whether cholinergic stimulation suppresses tumor development in part through specific muscarinic receptors on cancer cells, the sphere forming capacity of Kras^+/LSL-G12D pancreatic acinar cells in a 3D Matrigel culture system in the absence and presence of muscarinic agonists and antagonists was assessed. Kras^+/LSL-G12D mutant spheres were generated from Kras^+/LSL-G12D mice by delivery of an adenoviral Cre (Ad-Cre).
3D cultures were performed as described previously^18. Organoids were cultured for 5 days before analysis. Adenoviral delivered Cre (Ad-Cre) was added to the cultures and medium was changed after 12 hours. […] Sphere size and number were analyzed using ImageJ software.

murine K8282 cells = experiment: Western blot of EGFR/MAPK and PI3K/AKT signaling, K8282; assay type: cell-based, mouse
Description: (§2) To analyze EGFR and the MAPK and PI3K-Akt pathway in human and murine pancreatic cancer cell lines, cells were grown in 12-well plate to around ˜70% confluent, changed the 0.5% FBS medium, added the drugs respectively and incubated them for further 72 hrs incubation in a typical CO2 incubator (˜20% O2). After removing the medium, cells were washed twice with PBS, and protein extraction was performed on ice using RIPA buffer with protease inhibitor (Complete) (Roche) cocktail and phosphatase inhibitor (phosSTOP) (Roche). Protein samples were subsequently separated in 10% Bis-Tris Gel NuPAGE® electrophoresis using MES SDS Running Buffer (Invitrogen, CA, USA). After transfer to nitrocellulose, membranes were blocked with 5% BSA, and samples were probed with the following primary antibodies: p-EGFR (Cell Signaling), EGFR (Cell Signaling), p-BRAF (Cell Signaling), BRAF (Cell Signaling), p-ERK1/2 (phosphorylated p44/42 MAPK) (Thr202/Tyr204) (Cell Signaling), ERK1/2 (p44/42 MAPK) (Thr202/Tyr204) (Cell Signaling), p-PI3K (Cell Signaling), PI3K (Cell Signaling), p-Akt (Cell Signaling), Akt (Cell Signaling), and β-actin (Cell Signaling) followed by horseradish peroxidase-coupled secondary antibody. Immunoreactive bands were visualized using 5-bromo-4-chloro-3-indolyl phosphate/nitro blue tetrazolium and bands were quantified with ImageJ.
(§3) To analyze EGFR, MAPK and PI3K-AKT pathways in human and murine pancreatic cancer cell lines, cells were grown in 12-well culture plates to ˜70% confluency. The medium was then changed to 0.5% FBS medium, the respective drugs were added, and they were incubated for an additional 72 hours in a CO2 incubator (˜5% CO2). After removing the medium, cells were washed twice with PBS, and protein extraction was performed on ice using RIPA buffer with protease inhibitor (Complete, Roche) cocktail and a phosphatase inhibitor (phosSTOP, Roche). Protein samples were subsequently separated by 10% Bis-Tris Gel NuPAGE® electrophoresis using MES SDS Running Buffer (Invitrogen, CA, USA). After transfer to nitrocellulose, membranes were blocked with 5% BSA, and samples were probed with the following primary antibodies: p-EGFR (Cell Signaling), EGFR (Cell Signaling), p-BRAF (Cell Signaling), BRAF (Cell Signaling), p-ERK1/2 (phosphorylated p44/42 MAPK) (Thr202/Tyr204) (Cell Signaling), ERK1/2 (p44/42 MAPK) (Thr202/Tyr204) (Cell Signaling), p-PI3K (Cell Signaling), PI3K (Cell Signaling), p-AKT (Cell Signaling), AKT (Cell Signaling), and β-actin (Cell Signaling) followed by horseradish peroxidase-coupled secondary antibody. Immunoreactive bands were visualized using 5-bromo-4-chloro-3-indolyl phosphate/nitro blue tetrazolium and bands were quantified with ImageJ.

human Panc1 cells = experiment: Western blot of EGFR/MAPK and PI3K/AKT signaling, Panc1; assay type: cell-based
Description: as §2, §3

[2] = tested on: murine PDAC cell lines (Panc02, K8282); experiment: MTT assay, murine PDAC cell lines; assay type: cell-based, mouse; conditions: agonist added to antagonist
Description: (§4) Cell proliferation in each cell line was assessed with a 3-(4,5-dimethylthiazol-2yl)-2,5-diphenyltetrazolium bromide (MTT) assay kit (Sigma) in accordance with the manufacturer's instructions. 3×10^3 cells were grown in 96-well plate to around ˜70% confluent, changed the 0.5% FBS medium, added the drugs respectively and incubated them for further 72 hrs incubation in a typical CO2 incubator (˜20% O2). Treated cells were rinsed twice with PBS, incubated in 10 ll MTT solution for 4 hr at 37° C., and 100 uL DMSO was added to each well. The absorbance of each well was measured at 570 nm using Tilter-Tech 96-well multiscanner (Becton Dickinson, Heidelberg, Germany). The relative number of viable cells compared with the number of cells without drug treatment was expressed as percent cell viability using the following formula:
(§5) Cell proliferation in each cell line was assessed with a 3-(4,5-dimethylthiazol-2yl)-2,5-diphenyltetrazolium bromide (MTT) assay kit (Sigma) in accordance with the manufacturer's instructions. 3×10^3 cells were grown in 96-well plate to ˜70% confluency, the media was changed to 0.5% FBS medium, the respective drugs were added, and they were incubated for an additional 72 hours in a CO2 incubator (˜5% CO2). Treated cells were rinsed twice with PBS, incubated in 10 ul MTT (5 mg/ml PBS) solution for 4 hours at 37° C., and 100 uL DMSO was then added to each well. The absorbance of each well was measured at 570 nm using a Tilter-Tech 96-well multiscanner (Becton Dickinson, Heidelberg, Germany). The relative number of viable cells compared with the number of cells without drug treatment was expressed as percent cell viability using the following formula: cell viability (%)=A570 of treated cells/A570 of untreated cells.

Panc1 cells = experiment: Subcutaneous implantation of 25,000 pilocarpine-pretreated Panc1 cells into NOD/SCID mice; assay type: in vivo, mouse; conditions: 25,000 Panc1 cells pretreated with pilocarpine for 72 hours vs untreated Panc1 cells
Description: To address the possible parasympathetic effects on sternness, human pancreatic cancer cells (Panc1 and BxPC3) were treated with pilocarpine.
To address the possible parasympathetic effects on stemness, human pancreatic cancer cells (Panc1 and BxPC3) were treated with pilocarpine.
as §1

[3] = tested on: human PDAC cell lines (MiaPaca2, Panc1); experiment: MTT assay, human PDAC cell lines; assay type: cell-based
Description: as §4, §5

[4] = day 5, pilocarpine 1 mM, scopolamine 10 μM, McN-34A 50 μM, pirenzepine 50 μM, vs controls

Structure (SMILES): CC(C[N+](C)(C)C)OC(N)=O (centres unmarked) [bethanechol, 2-[(aminocarbonyl)oxy]-N,N,N-trimethyl-1-propanaminium]
- overall survival (in words) (KPC mice): extended significantly; also recorded: significantly extended
- overall survival (in words) (KPC mice; listed as Bethanechol): significantly extended; also recorded: prolongs
- expression of p-EGFR, p-PI3K and p-ERK1/2 (immunohistochemical staining) (KPC mice; pancreata of KPC mice treated with bethanechol): suppressed; also recorded: significantly downregulated

Structure (SMILES): CC[C@@H]1C(=O)OC[C@@H]1Cc1cncn1C [pilocarpine, (3S,4R)-3-ethyl-4-[(3-methylimidazol-4-yl)methyl]oxolan-2-one]
- number of spheres [1, 4]: significantly fewer; also recorded: reduced
- size of spheres [1, 4]: smaller
- sphere formation and growth of Kras mutant spheres ([1]; oncogenic K-Ras allele activated by adeno-Cre virus): significant inhibitory effect; also recorded: decrease; also recorded: suppresses
- phosphorylation of EGFR, BRAF, ERK1/2, PI3K and AKT kinases (western blot) (murine K8282 cells; 72 hours): significantly less phosphorylated
- ratios of p-EGFR/EGFR, p-BRAF/BRAF, p-ERK/ERK, p-PI3K/PI3K and p-AKT/AKT (densitometry) (murine K8282 cells; single agent alone): significantly decreased
- phosphorylation of EGFR, BRAF, ERK1/2, PI3K and AKT kinases (western blot) (human Panc1 cells; 72 hours): significantly less phosphorylated
- ratios of p-EGFR/EGFR, p-BRAF/BRAF, p-ERK/ERK, p-PI3K/PI3K and p-AKT/AKT (densitometry) (human Panc1 cells; single agent alone): significantly decreased
- increase in proliferation due to muscarinic antagonists [2]: blocked; also recorded: inhibited to some extent
- tumor incidence / tumor initiation in NOD/SCID mice (Panc1 cells): significant reduction; also recorded: inhibited
- tumor volume / size in NOD/SCID mice (Panc1 cells): significant reduction
- tumor incidence / tumor initiation in NOD/SCID mice (Panc1 cells; listed as Pilocarpine): fewer
- tumor volume / size in NOD/SCID mice (Panc1 cells; listed as Pilocarpine): smaller
- proliferation (MTT assay) ([3]; 72 hours, 0.5% FBS medium): suppressed
- increase in proliferation due to muscarinic antagonists ([3]; agonist added to antagonist): blocked; also recorded: inhibited to some extent
